From patent publication US7575640B2, “Method for producing sugar and sugar-containing products from sugar-containing plant raw materials” (Zuckerforschung Tulln Gesellschaft m.b.H., priority 2003, dated 2009)
Values after ≈ are worked out from the molar mass of the structure shown. Like-named read-outs stand apart in the source and are kept apart here.

Columns and labels:
[1] = system: thermophilic bacteria; assay: pH drop (acid formation) in liquid culture medium inoculated with crude juice from sugar beet extraction, 65° C.; assay type: cell-based, thermophilic bacteria (mixed culture); details: 65° C.; for pH / ΔpH/h: 10 mg/l added at pH 6.47 (5.10 h)
Description: If a sugar-containing substrate, e.g. a sugar-containing liquid culture medium, as it is common in microbiology, is either non-sterilized or incubated after inoculation with a bacterial strain, an acid formation will occur which is the easiest to recognize by a drop in the pH. The same phenomenon will occur when incubating normal sugar-containing plant juices, e.g. beet juice. In an industrial process, e.g. in the recovery of sugar juice from sugar beets, a drop in the pH by degradation of sugar means a loss of sugar and a need for an alkalizing agent. Moreover, a drop in the pH with an increase in the germ content in the substrate often is associated with an unpleasant gas and nitrite formation.
(§1) A liquid culture medium, as commonly used in microbiology and consisting of 10 g of Bacto-peptone, 5 g of meat extract, 5 g of yeast extract, 1 g of glucose, 1 g of K2HPO4, 0.1 g of MgSO4*7H2O and 0.01 g of FeSO4*7H2O per liter of distilled water, is sterilized in conventional manner for 20 min at 120° C. and inoculated, in a vessel kept at a temperature of 65° C., with 20 ml of crude juice from a large-scale sugar beet extraction, wherein the pH is registered on a recorder. Upon the growth of thermophilic bacteria, the pH drops progressively. This indicates a microorganism-caused acid formation.
A mixed culture according to Example 1 is prepared.

[2] = system: pure culture strain DSMZ 457; assay: pH drop in liquid culture medium inoculated with pure culture strain; assay type: cell-based
Description: as §1
A liquid culture medium, as in Example 1, is inoculated with a pure culture strain DSMZ 457 of the Deutsche Sammlung für Mikroorganismen und Zellkulturen GmbH. A pH drop starting after 1 hour can be stopped by two additions of 0.2 ml of a 1% alcoholic solution of myristic acid (C14), corresponding to a concentration of merely 4 mg/l. After 4 hours, a renewed pH drop starts which can be stopped for further 7 hours by a further addition of 2 mg/l, i.e. in sum 6 mg/l.

[3] = system: mesophilic mixed culture; assay: pH drop in mixed culture incubated at 35° C.; assay type: cell-based
Description: as §1
A mixed culture according to Example 1 is prepared, yet incubated at 35° C. A pH drop starting after 5 hours cannot be stopped by 11 successive additions of 1 ml of a 1% alcoholic solution of myristic acid per liter culture, corresponding to 110 mg/l, and a further addition of 4 ml, i.e. in sum 150 mg/l.

[4] = system: thermophilic bacteria; assay: determination of MIC by stepwise addition until stabilization of the pH, 65° C.; assay type: cell-based, thermophilic bacteria (mixed culture)
Description: To illustrate the antimicrobial activity within the scope of sugar production, examples are carried out with […] compounds by way of example. […] Upon the growth of thermophilic bacteria, the pH drops progressively. This indicates a microorganism-caused acid formation. […] The fatty acid compounds used in this Example are myristic acid and lauric acid, and their potassium salts, respectively. In this case, the acids were used both individually and in a 1:1 mixture, the salts were exclusively used in a 1:1 mixture.

[5] = system: yeasts; assay: efficacy relative to yeasts; assay type: cell-based; details: compared with thermophilic bacteria
[6] = Time 4.50 h, 2×2 mg/l added between pH 6.81 and 6.51
[7] = Time 6.25 h, 11×10 and 1×40 mg/l being added between pH 6.55 and 6.30
[8] = Time 6.50 h, 11×10 and 1×40 mg/l added between pH 6.55 and 6.30

## CCCCCCCCCCCCCC(=O)O [myristic acid]
[1]; 10 mg/l, mixed culture
  duration of effectiveness (pH drop stopped): at least 14 h
  effect on pH drop: suddenly and lastingly stopped
[1]; Time 5.50 h
  pH: 6.47
  ΔpH/h: 0.00
[1]; Time 6 h
  pH: 6.47
  ΔpH/h: 0.00
[1]; Time 7 h
  pH: 6.48
  ΔpH/h: −0.01
[1]; Time 10 h
  pH: 6.50
  ΔpH/h: −0.01
[1]; Time 13 h
  pH: 6.53
  ΔpH/h: −0.01
[1]; Time 16 h
  pH: 6.55
  ΔpH/h: −0.01
[1]; Time 19 h
  pH: 6.53
  ΔpH/h: 0.01
[2]; 4 mg/l
  time until renewed pH drop: 4 hours
[2]; [6]
  pH: 6.51
  ΔpH/h: 0.60
[2]; Time 5 h, 4 mg/l
  pH: 6.50
  ΔpH/h: 0.02
[2]; Time 6 h, 4 mg/l
  pH: 6.51
  ΔpH/h: −0.01
[2]; Time 7 h, 4 mg/l
  pH: 6.51
  ΔpH/h: 0.00
[2]; Time 8 h, 4 mg/l
  pH: 6.51
  ΔpH/h: 0.00
[2]; Time 9 h, 4 mg/l
  pH: 6.48
  ΔpH/h: 0.03
[2]; Time 10.2 h, 4 mg/l, further 2 mg/l added at pH 6.39
  ΔpH/h: 0.08
[2]; Time 10.2 h, 4 mg/l, further 2 mg/l added at this pH
  pH: 6.39
[2]; Time 11 h, in sum 6 mg/l
  pH: 6.39
  ΔpH/h: 0.00
[2]; Time 12 h, in sum 6 mg/l
  pH: 6.39
  ΔpH/h: 0.00
[2]; Time 13 h, in sum 6 mg/l
  pH: 6.39
  ΔpH/h: 0.00
[2]; Time 14 h, in sum 6 mg/l
  pH: 6.39
  ΔpH/h: 0.00
[2]; Time 15 h, in sum 6 mg/l
  pH: 6.39
  ΔpH/h: 0.00
[2]; further 2 mg/l, in sum 6 mg/l
  further time pH drop stopped: 7 hours
[2]; two additions of 2 mg/l, pure culture
  concentration that stops the pH drop: 4 mg/l
[3]; [7]
  pH: 6.41
  ΔpH/h: 0.56
[3]; [8]
  pH: 6.30
  ΔpH/h: 0.44
[3]; Time 6.75 h, in sum 150 mg/l
  pH: 6.19
  ΔpH/h: 0.44
[3]; Time 7.00 h, in sum 150 mg/l
  pH: 6.06
  ΔpH/h: 0.52
[3]; Time 7.25 h, in sum 150 mg/l
  pH: 5.94
  ΔpH/h: 0.48
[3]; pH drop cannot be stopped
  concentration that stops the pH drop: > 150 mg/l
[4]; dissolved in ethanol, 10 mg/l steps, maximum 150 mg/l, 65° C., read-out: Min. Inhibitory Conc. (MIC)
  MIC: 10 µg/mL (≈ 43.8 µM)
[4]; dissolved in ethanol, steps of 2 mg/l, read-out: Min. Inhibitory Conc. (MIC)
  MIC: 6 µg/mL (≈ 26.3 µM)
[4]; text summary of Example 9, read-out: MIC (concentration successfully used)
  MIC: 6000 µg/mL (≈ 26300 µM)
[5]
  efficacy relative to yeasts: markedly lower efficacy
